Like-named read-outs stand apart in the source and are kept apart here.
Columns and labels:
[1] = biological target: T1, recombinant mouse sEH (MsEH) (Mus musculus, UniProt P34914); experiment: Inhibition of recombinant mouse sEH (MsEH); format: biochemical
T1 sequence (P34914 1-554): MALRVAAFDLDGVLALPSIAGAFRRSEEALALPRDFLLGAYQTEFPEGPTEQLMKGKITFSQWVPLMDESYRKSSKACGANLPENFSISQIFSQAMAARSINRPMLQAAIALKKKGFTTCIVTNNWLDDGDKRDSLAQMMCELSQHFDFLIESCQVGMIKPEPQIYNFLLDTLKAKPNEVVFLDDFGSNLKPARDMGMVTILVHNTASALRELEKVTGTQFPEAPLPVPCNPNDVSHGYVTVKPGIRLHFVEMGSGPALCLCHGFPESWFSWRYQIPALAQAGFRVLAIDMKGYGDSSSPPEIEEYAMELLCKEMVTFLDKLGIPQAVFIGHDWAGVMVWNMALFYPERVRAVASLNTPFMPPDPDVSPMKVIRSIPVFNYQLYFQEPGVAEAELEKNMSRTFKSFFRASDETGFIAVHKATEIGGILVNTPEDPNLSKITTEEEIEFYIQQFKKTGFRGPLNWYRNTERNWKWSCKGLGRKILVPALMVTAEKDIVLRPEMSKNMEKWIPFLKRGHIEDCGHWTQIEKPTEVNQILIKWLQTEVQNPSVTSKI

[2] = biological target: T2, Human sEH (HsEH) (Homo sapiens, UniProt P34913); experiment: Inhibition of recombinant human sEH (HsEH); format: biochemical; conditions: HsEH 0.26 μM
T2 sequence (P34913 1-555): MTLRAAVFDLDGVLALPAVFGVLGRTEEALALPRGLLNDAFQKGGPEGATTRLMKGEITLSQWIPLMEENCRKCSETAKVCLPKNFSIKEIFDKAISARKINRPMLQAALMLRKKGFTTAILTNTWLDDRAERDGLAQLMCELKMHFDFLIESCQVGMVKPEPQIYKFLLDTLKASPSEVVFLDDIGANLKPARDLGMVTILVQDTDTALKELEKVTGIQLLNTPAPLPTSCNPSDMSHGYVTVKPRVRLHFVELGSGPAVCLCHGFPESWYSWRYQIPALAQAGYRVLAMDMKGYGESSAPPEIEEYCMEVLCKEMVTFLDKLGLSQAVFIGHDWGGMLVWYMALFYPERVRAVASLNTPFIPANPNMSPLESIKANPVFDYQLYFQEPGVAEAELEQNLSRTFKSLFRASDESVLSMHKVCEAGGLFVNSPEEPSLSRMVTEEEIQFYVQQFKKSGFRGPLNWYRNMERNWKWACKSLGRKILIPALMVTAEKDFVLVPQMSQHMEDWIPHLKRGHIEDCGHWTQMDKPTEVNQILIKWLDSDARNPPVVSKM

[3] = Table 1, MsEH 0.13 μM, read-out: Mouse sEH IC50
[4] = Table 2, MsEH 0.13 μM, read-out: Mouse sEH IC50

Compound | IC50 [1, 3] [nM] | IC50 ([2]; Table 1) [nM] | IC50 [1, 4] [nM] | IC50 ([2]; Table 2) [nM] | IC50 [1] [nM]
CCC(C)NC(=O)NC1CCCCC1 (stereo not drawn) [compound 479] | 600 ± 60 | 5000 ± 100 |  |  | 
Cc1ccc(NC(=O)NC2CCCCC2)cc1 [compound 108] | 130 ± 10 | 170 ± 10 |  |  | 
O=C(NCc1ccncc1)NC1CCCCC1 [compound 188] | 730 ± 80 | 2500 ± 30 |  |  | 
C[C@H](NC(=O)NC1CCCCC1)c1ccccc1 [compound 544] | 50 ± 10 | 100 ± 10 |  |  | 
COC(c1ccccc1)C1OC1c1ccc(-c2ccccc2)cc1 (racemic) [R=4-C6H5—C6H4, R′=C6H5, X—Y=CH—OCH3, ±] |  |  | 480 ± 50 | 1360 ± 70 | 
O=C(NCC1CCCCC1)Nc1ccccc1 [compound 176] | 60 ± 10 | 530 ± 30 |  |  | 
CCCCCCNC(=O)Nc1ccccc1 [compound 157] | 850 ± 10 | 1430 ± 30 |  |  | 
O=C(Nc1nnn[nH]1)NC1CCCCC1 [compound 533] | 50 ± 100 | 100 ± 10 |  |  | 
CCCCCCCCCCCCCNC(=O)NC1CCCCC1 [compound 354] | 50 ± 10 | 100 ± 10 |  |  | 
Nc1ccc(NC(=O)NC2CCCCC2)cc1 [compound 385] | 170 ± 20 | 2200 ± 100 |  |  | 
CCCCCCCCCCCCNC(=O)NC1CCC1 [compound 504] | 800 ± 100 | 23000 ± 4000 |  |  | 
O=C(NCCCc1ccccc1)Nc1ccccc1 [compound 430] | 210 ± 20 | 550 ± 30 |  |  | 
CC1CCC(C(C)C)C(OC(=O)NC2CCCCC2)C1 (stereo not drawn) [compound 261] | 80 ± 10 | 120 ± 10 |  |  | 
C=C(C)CCOC(=O)NC1CCCCC1 [compound 277] | 120 ± 10 | 220 ± 20 |  |  | 
CCCCCCCNC(=O)NC1CCCCC1 [compound 508] | 50 ± 10 | 100 ± 10 |  |  | 
O=C(NCCNc1ccccc1)NC1CCCCC1 [compound 463] | 900 ± 70 | 8300 ± 400 |  |  | 
O=C(c1ccccc1)C1OC1c1ccc(F)cc1 (racemic) [R=4-F-C6H4, R′=C6H5, X—Y=C═O, ±] |  |  | 1300 ± 300 | 300 ± 100 | 
CCCCCCCCCCCCNC(=O)NCC(C)C [compound 478] | 50 ± 10 | 260 ± 20 |  |  | 
CCCCCCCCCNC(=O)NCCC [compound 429] | 380 ± 40 | 1700 ± 400 |  |  | 

Compound | IC50 [1, 3] [nM] | IC50 ([2]; Table 1) [nM] | IC50 [1, 4] [nM] | IC50 ([2]; Table 2) [nM] | IC50 [1] [nM]
N#Cc1ccc(NC(=O)NC2CCCCC2)cc1 [compound 118] | 60 ± 10 | 100 ± 10 |  |  | 
O=C(Nc1ccccc1)NC1CCCCC1 [compound 21] | 760 ± 20 | 1390 ± 20 |  |  | 
O=C(Nc1ccc(Oc2ccccc2)cc1)NC1CCCCC1 [compound 140] | 50 ± 10 | 100 ± 10 |  |  | 
CCCCCCCCCCCCNC(=O)NC(C)(C)CC [compound 562] | 500 ± 100 | 15000 ± 3000 |  |  | 
CC(C)c1ccc(NC(=O)NCC2CCCCC2)cc1 [compound 180] | 60 ± 10 | 100 ± 10 |  |  | 
O=C(NC1CCCCC1)Oc1ccc2ccccc2c1 [compound 110] |  | 350 ± 10 |  |  | 210 ± 10
ON=C(c1ccccc1)C1OC1c1ccccc1 (racemic) [R=C6H5, R′=C6H5, X—Y=C═NOH, ±] |  |  | 3500 ± 500 | 290 ± 10 | 
ON=C(c1ccccc1)C1OC1c1ccc(-c2ccccc2)cc1 (racemic) [R=4-C6H5—C6H4, R′=C6H5, X—Y=C═NOH, ±] |  |  | 42000 ± 3000 | 35000 ± 1000 | 
O=C(O)CCCCCCCCCCCNC(=O)Nc1ccc2ccccc2c1 [compound 283] | 700 ± 200 | 1120 ± 30 |  |  | 
CCCCCCCCCCNC(=O)Nc1ccccc1 [compound 148] | 210 ± 10 | 610 ± 20 |  |  | 
O=C(Nc1ccncc1)NC1CCCCC1 [compound 100] | 70 ± 10 | 150 ± 10 |  |  | 
O=C(NC1CCCCCCCCCCC1)NC1CCCCC1 [compound 119] | 50 ± 10 | 100 ± 10 |  |  | 
O=C(NC1CCCCCC1)NC1CCCCC1 [compound 22] | 50 ± 100 | 100 ± 10 |  |  | 
C(=NC1CCCCC1)=NC1CCCCC1 |  | 470 ± 10 |  |  | 250 ± 20
CCCCCCCCCCCCNC(=O)NC1CCCCC1 [compound 297] | 50 ± 10 | 100 ± 10 |  |  | 
Cc1cccc(C)c1NC(=O)NC1CCCCC1 [compound 435] | 50 ± 10 | 180 ± 10 |  |  | 
O=C(NC1CCCCC1)OCCCCC1CCCCC1 [compound 276] | 1100 ± 100 | 340 ± 20 |  |  | 
CCCCCCCCCCNC(=O)NC1CCCCC1 [compound 153] | 60 ± 10 | 100 ± 10 |  |  | 
O=C(NC1CCCCC1)OCc1ccc(-c2ccccc2)cc1 [compound 259] | 450 ± 90 | 100 ± 20 |  |  | 

Compound | IC50 [1, 3] [nM] | IC50 ([2]; Table 1) [nM] | IC50 [1, 4] [nM] | IC50 ([2]; Table 2) [nM] | IC50 [1] [nM]
O=C(NCCc1ccccc1)NCc1ccccc1 [compound 470] | 590 ± 80 | 7600 ± 100 |  |  | 
Cc1ccc(C(O)C2OC2c2ccc(-c3ccccc3)cc2)cc1 (racemic) |  |  | 90 ± 10 | 150 ± 20 | 
O=C(NCCc1cnc[nH]1)NC1CCCCC1 [compound 461] | 420 ± 10 | 550 ± 20 |  |  | 
O=C(CCCCc1ccccc1)NC1CCCCC1 [compound 381] | 60 ± 10 | 680 ± 30 |  |  | 
O=C(c1ccccc1)C1OC1c1ccccc1 (racemic) [R=C6H5, R′=C6H5, X—Y=C═O, ±] |  |  | 2900 ± 300 | 300 ± 100 | 
O=C(NC1CCCCC1)NC1CCCC1 [compound 23] | 100 ± 10 | 1690 ± 50 |  |  | 
CCCCCCNC(=O)Nc1ccc2ccccc2c1 [compound 143] | 1000 ± 100 | 570 ± 10 |  |  | 
CCCCCCCCNC(=O)Nc1ccccc1 [compound 151] |  | 580 ± 10 |  |  | 2290 ± 30
Nc1ccc(CNC(=O)NC2CCCCC2)cc1 [compound 379] | 50 ± 10 | 1500 ± 100 |  |  | 
O=C(NCCCc1ccccc1)NC12CC3CC(CC(C3)C1)C2 [compound 438] | 50 ± 10 | 100 ± 10 |  |  | 
O=C(NCCCc1ccccc1)NC1CCCCC1 [compound 104] | 40 ± 10 | 290 ± 10 |  |  | 
O=C(NCCC1CCCCC1)NC1CCCCC1 [compound 360] | 50 ± 10 | 100 ± 10 |  |  | 
[O-][S+](c1ccccc1)C1OC1c1ccc(-c2ccccc2)cc1 (racemic) [R=4-C6H5—C6H4, R′=C6H5, X—Y=S═O, ±] |  |  | 73000 ± 5000 | 70000 ± 3000 | 
CC(O)C1OC1c1ccc([N+](=O)[O-])cc1 (racemic) [R=4-NO2—C6H4, R′=CH3, X—Y=CH—OH, ±] |  |  | 6500 ± 200 | 39000 ± 1000 | 
O=C(NCc1ccccc1)NC1CCCCC1 [compound 270] | 50 ± 10 | 1900 ± 100 |  |  | 
CC(C)(C)C1CCC(NC(=O)NC2CCCCC2)CC1 (stereo not drawn) [compound 428] | 50 ± 100 | 100 ± 10 |  |  | 
CC(NC(=O)NC1CCCCC1)C1C2CC3CC(C2)CC1C3 (stereo not drawn) [compound 358] | 50 ± 10 | 180 ± 40 |  |  | 
O=C(NC1CCCCC1)Oc1ccccc1CO [compound 224] |  | 320 ± 80 |  |  | 990 ± 20
CCCCCCCCNC(=O)NC1CCCCC1 [compound 168] | 60 ± 10 | 120 ± 10 |  |  | 

— patent US6756210B2, “Linoleic acid diol and glucuronide conjugate levels as diagnostic markers of disorders of abnormal regulation of cytochrome P450 metabolism of unsaturated fatty acids” (The Regents of the University of California, priority 2001, dated 2004)
